Test results from EP1832586A1, “Thiazole-piperidine derivatives in treatment of diseases of liver and the pancreas” (Oridis Biomed Forschungs- und Entwicklungs GmbH, priority 2006, dated 2007).

Assays:
Type in all cases: cell-based
HeLa = assay: CellTiter-Glo luminescent cell viability (proliferation) assay, HeLa; conditions: Hela (human ovarian carcinoma [sic]) proliferation, 48 hours incubation, 10% FCS
Protocol: (§1) To practically assess the impact of the thiazole-piperidine derivatives, e.g. derivatives of piperidinyl-thiazole carboxylic acid and/or piperidinyl thiazole carboxamide, in the treatment and/or prevention of diseases according to the invention, the inhibition of cell proliferation is determined by using a luminescent cell viability assay (CellTiter-Glo®; Promega, Madison, USA). The assay is based on the relation that the ATP content is directly proportional to the number of cells present in the culture. The CellTiter-Glo® assay is performed to measure the proliferation rate of human hepatoma (HuH7, PLC/PRF/5, Hep3B, SK-Hep1), human hepatoblastoma (HepG2), human colon carcinoma (CX-2), human breast cancer (SK-Br-3), human ovarian carcinoma (HeLa) and human pancreatic carcinoma (DAN-G) cell lines. […] In particular, the compound according to formula (1) wherein R^1 is 4-isopropoxycarbonylphenyl, R^2 is 3-indolylmethyl, R^3 is hydrogen, R^4 is hydrogen, n is zero, A is a single bond, B is carbonyl, and wherein the residue R^1NR^3CO is connected to the carbon atom bound to nitrogen of the thiazole ring (compound no. XI in Table 1) inhibits proliferation of the human cell lines HepG2 and Hep3B with 10.8 and 3.5 µM, respectively.
(§2) To determine the inhibition of cell proliferation a luminescent cell viability assay (CellTiter-Glo®; Promega, Madison, USA) is implemented. The assay is based on the relation that the ATP content is directly proportional to the number of cells present in the culture (Technical Bulletin No. 228 "CellTiter-Glo® Luminescent Cell viability Assay", Revised 2/04. Promeg, Madison, USA). The CellTiter-Glo® assay is performed to measure the proliferation rate of human hepatoma (HuH7, PLC/PRF/5, Hep3B, SK-Hep1), human hepatoblastoma (HepG2), human colon carcinoma (CX-2), human breast cancer (SK-Br-3), human ovarian carcinoma (HeLa) and human pancreatic carcinoma (DAN-G) cell lines. 3000 viable cells (viability ≥ 90%) are seeded in opaque-walled 96-well plates and incubated for 24 hours in DMEM, supplemented with 2 mM glutamin. Cell proliferation is stimulated by addition of FCS to a final concentration of 10% (v/v). Simultaneously the compounds (see Table 1 and 2) are added in a concentration range of 0 to 20 µM. Triplicates are measured for each concentration. Cells and compounds (see Table 1 and 2) are incubated for a period of 48 hours in a volume of 140 µl cell culture medium (10% (v/v) FCS, 2 mM Glutamin, DMEM). The compounds according to the invention are dissolved in 60% to 100% (v/v) DMSO at a concentration of 2 mM. The final DMSO concentration under assay conditions never exceeds 1% (v/v). Throughout the assay cells are kept in a humidified incubator (95% rH) at 37°C and 5% CO2.
(§3) The final cell number is determined after 48 hour of incubation. Therefore 140 µl CellTiter-Glo®Reagent is added in each well. The contents are mixed on an orbital shaker for 2 minutes at room temperature. After subsequent incubation for additional 10 minutes at room temperature the luminescence signal is recorded within 30 min. EC50 values are calculated using the four-parametric Hill equation (Sigma Plot). Control values are: • 1) 10% (v/v) FCS, 2 mM glutamin, DMEM -> maximum cell number • 2) 2 mM glutamin, DMEM -> initial cell number

HuH7 = assay: CellTiter-Glo luminescent cell viability (proliferation) assay, HuH7; conditions: inhibition of HuH7 (human hepatoma) proliferation, 48 hours incubation, 10% FCS
Protocol: as §1, §2, §3

DAN-G = assay: CellTiter-Glo luminescent cell viability (proliferation) assay, DAN-G; conditions: DAN-G (human pancreatic carcinoma) proliferation, 48 hours incubation, 10% FCS
Protocol: as §1, §2, §3

CX-2 = assay: CellTiter-Glo luminescent cell viability (proliferation) assay, CX-2; conditions: CX-2 (human colon carcinoma) proliferation, 48 hours incubation, 10% FCS
Protocol: as §1, §2, §3

SK-Br-3 = assay: CellTiter-Glo luminescent cell viability (proliferation) assay, SK-Br-3; conditions: Sk-Br-3 (human breast cancer) proliferation, 48 hours incubation, 10% FCS
Protocol: as §1, §2, §3

Row | SMILES | EC50 (HeLa) [µM] | EC50 (HuH7; Homo sapiens, Huh-7, 48 h) [µM] | EC50 (DAN-G) [µM] | EC50 (CX-2) [µM] | EC50 (SK-Br-3) [µM] | EC50 (HuH7; Huh-7) [µM]
1 | O=C(Nc1ccc2ncccc2c1)c1csc(C2CCN(C(=O)CC3C=Nc4ccccc43)CC2)n1 (stereo not drawn) [III] | 3.95 | 1.39 | 1.99 | 9.3 | 7.07 | 
2 | O=C(Nc1ccc(F)c([N+](=O)[O-])c1)c1csc(C2CCN(C(=O)Cc3c[nH]c4ccccc34)CC2)n1 [II] | 12.1 |  | 3.16 | > 20 | 10.4 | 3.42
3 | COc1ccc(CNC(=O)c2csc(C3CCN(C(=O)CC4C=Nc5ccccc54)CC3)n2)cc1OC (stereo not drawn) [IV] | 10.3 | 3.76 | 7.52 | > 20 | > 20 | 
4 | O=C(Nc1cccc(-c2cnco2)c1)c1csc(C2CCN(C(=O)Cc3c[nH]c4ccccc34)CC2)n1 [IX] |  |  |  |  |  | 12.1
5 | O=C(Nc1cc(-c2ccccc2)[nH]n1)c1csc(C2CCN(C(=O)Cc3c[nH]c4ccccc34)CC2)n1 [I] |  |  |  |  |  | 5.35
6 | O=C(CC1C=Nc2ccccc21)N1CCC(c2nc(C(=O)N3CCN(c4ncccn4)CC3)cs2)CC1 (stereo not drawn) [LIII] | 23.6 | 1.63 | 18.2 | > 20 | 19.5 | 
7 | O=C(Nc1ccc2c(c1)OCCO2)c1csc(C2CCN(C(=O)NC3C=C(c4ccccc4)N=N3)CC2)n1 (stereo not drawn) [LII] |  | 19.5 |  |  |  | 
8 | Cn1nc(-c2ccccc2)cc1NC(=O)c1csc(C2CCN(C(=O)C3CCCCC3)CC2)n1 [LIV] |  | 5.5 |  |  |  | 
9 | O=C(Nc1ccc2c(c1)C(=O)OC2)c1csc(C2CCN(C(=O)CC3C=Nc4ccccc43)CC2)n1 (stereo not drawn) [LIX] |  | 7.13 |  |  |  | 
10 | O=C(CC1C=Nc2ccccc21)N1CCC(c2nc(C(=O)N3CCN(c4ccc(Cl)c(Cl)c4)CC3)cs2)CC1 (stereo not drawn) [LI] |  | 4.9 |  |  |  | 
11 | CCOc1cccc(C(=O)NNC(=O)c2csc(C3CCN(C(=O)CC4C=Nc5ccccc54)CC3)n2)c1 (stereo not drawn) [LVIII] |  | 4.58 |  |  |  | 
12 | C#CC1(NC(=O)c2csc(C3CCN(C(=O)CC4C=Nc5ccccc54)CC3)n2)CCCCC1 (stereo not drawn) [LVII] |  | 5.1 |  |  |  | 
13 | COc1ccc(C(=O)N2CCC(c3nc(C(=O)Nc4cc(-c5ccco5)n[nH]4)cs3)CC2)c(OC)c1OC [LVI] | 10.5 | 3.6 | 16.9 | > 20 | > 20 | 
14 | Cc1ccc(C(=O)NNC(=O)c2csc(C3CCN(C(=O)CC4C=Nc5ccccc54)CC3)n2)s1 (stereo not drawn) [LV] |  | 4.04 |  |  |  | 
15 | C#CCOC(=O)N1CCC(c2nc(C(=O)Nc3[nH]nc(C)c3-c3ccccc3)cs2)CC1 [L] |  | 5.4 |  |  |  | 
16 | Cn1nc(-c2ccccc2)cc1NC(=O)c1csc(C2CCN(C(=O)Cc3c[nH]c4ccccc34)CC2)n1 [VII] | 12.5 |  | 7.1 | > 20 | 10.8 | 3.38
17 | CC(C)(Cc1ccc(F)cc1)NC(=O)c1csc(C2CCN(C(=O)CC3C=Nc4ccccc43)CC2)n1 (stereo not drawn) [VI] | 13.5 | 4.81 | 11.2 | 19.2 | 10.4 | 
18 | Cc1ccc2cc(NC(=O)c3csc(C4CCN(C(=O)CC5C=Nc6ccccc65)CC4)n3)ccc2n1 (stereo not drawn) [V] | 8.79 | 4.68 | 6.9 | > 20 | 10.8 | 
19 | COc1ccc(NC(=O)c2csc(C3CCN(C(=O)NC4C=C(c5ccccc5)N=N4)CC3)n2)cn1 (stereo not drawn) [XIII] | 10.1 | 5.3 | 8.9 | > 20 | 12.3 | 
20 | CCOc1ccccc1N1CCN(C(=O)c2csc(C3CCN(C(=O)CC4C=Nc5ccccc54)CC3)n2)CC1 (stereo not drawn) [XII] |  | 13.4 |  |  |  | 
21 | Cc1csc(NC(=O)c2csc(C3CCN(C(=O)CC4C=Nc5ccccc54)CC3)n2)c1C(N)=O (stereo not drawn) [XIV] |  | 12.9 |  |  |  | 
22 | CS(=O)(=O)c1ccc(CNC(=O)c2csc(C3CCN(C(=O)CC4C=Nc5ccccc54)CC3)n2)cc1 (stereo not drawn) [XIX] |  | 8.5 |  |  |  | 
23 | O=C(CC1C=Nc2ccccc21)N1CCC(c2nc(C(=O)N3CCN(c4c(Cl)cncc4Cl)CC3)cs2)CC1 (stereo not drawn) [XLIII] |  | 4.74 |  |  |  | 
24 | Cc1cnc(NC(=O)c2csc(C3CCN(C(=S)Nc4ccc(N(C)C)cc4)CC3)n2)s1 [XLII] |  | 2.2 |  |  |  | 
